Measured values as given in paper PMC6658769, “First-Time-in-Human Study and Prediction of Early Bactericidal Activity for GSK3036656, a Potent Leucyl-tRNA Synthetase Inhibitor for Tuberculosis Treatment” (Antimicrobial Agents and Chemotherapy, 2019).
Converted amounts (≈) assume the structure as drawn. Where two headings read alike, the source gives them in different places. Marks after values point to notes of the source that are not given here.

Experiments:
[1] = tested on: panel of common bacterial pathogens; assay: Activity against a panel of common bacterial pathogens; assay type: cell-based
[2] = tested on: panel of mammalian cell lines; assay: Activity against a panel of mammalian cell lines; assay type: cell-based
M. tuberculosis H37Rv [3] = assay: Acute lung infection model in mice; assay type: in vivo, C57BL/6 mice
Experimental: (§1) The efficacy of GSK3036656 was assessed in C57BL/6 mice having acute and chronic lung infections by M. tuberculosis H37Rv, which mimic infections by actively replicating and nonreplicating/slow-replicating mycobacteria, respectively ([13], [14]). In the acute model, 10 mice were administered different daily oral doses ranging from 0.1 to 100 mg/kg of body weight for 8 days starting 1 day after infection. A maximum difference of 3.6 log CFU was obtained in the lungs compared to untreated mice. […] In the chronic model, a total of 18 mice were administered doses ranging from 0.1 to 30 mg/kg from weeks 6 to 14 after infection. Maximum reduction (drop of 2.1 log10 CFU in the lungs) was achieved after 2 months of daily oral treatment and after fitting the data to a sigmoidal curve. The EDmax for GSK3036656 was estimated as 1.3 mg/kg ([…], 0.7 to 3.4 mg/kg). […] Some additional groups treated at 0.3 to 30 mg/kg were studied in the chronic model to obtain kinetic data (from 2 to 16 weeks of treatment).

[4] = Chronic lung infection model in mice; assay type: in vivo, C57BL/6 mice; conditions: C57BL/6, mouse, in vivo, 1.3 mg/kg, read-out: plasma steady-state AUC associated with EDmax (AUCEDmax), target exposure for efficacy in humans
Experimental: as §1

M. tuberculosis H37Rv [5] = assay: Chronic lung infection model in mice; assay type: in vivo, C57BL/6 mice
Experimental: as §1

in vitro [6] = assay type: in vitro ADME; conditions: rat, plasma
in vitro [7] = assay type: in vitro ADME; conditions: dog, plasma
[8] = assay type: in vitro ADME; conditions: not told
P-glycoprotein (P-gp) = P-glycoprotein (P-gp) (Homo sapiens, UniProt P08183); assay: P-gp substrate assessment; assay type: in vitro ADME; conditions: not told
[9] = target: breast cancer resistance protein (Homo sapiens, UniProt Q9UNQ0); assay: BCRP substrate assessment; assay type: in vitro ADME; conditions: in vitro
CYP3A4 = CYP3A4 (Homo sapiens, UniProt P08684); assay: Metabolism-dependent inhibition or induction of CYP3A4; assay type: in vitro ADME; conditions: in vitro
[10] = mouse, in vivo
[11] = rat, in vivo
[12] = dog, in vivo
[13] = Stability in pooled and spiked urine; assay type: physicochemical, human; conditions: multiple freeze-thaw cycles and prolonged exposure to light
[14] = tested on: M. tuberculosis fast-growing and slow-growing populations; assay: PK/PD parameters estimated from acute and chronic mouse infection models; assay type: in vivo; conditions: for EC50: Mycobacterium tuberculosis
[15] = target: M. tuberculosis enzyme leucyl-tRNA synthetase (LeuRS); set-up: method as in PMID 28953378; conditions: LeuRS aminoacylation assay; cited from earlier work
[16] = human, in vivo
[17] = human, in vivo; remark: listed apart in the source
[18] = human, in vivo; remark: listed apart in the source
clinical [19] = conditions: human, in vivo, po
clinical [20] = conditions: human, in vivo
[21] = Food effect study (part A, high-fat meal); conditions: 5 mg; for half-life: human, plasma, po, t1/2, geometric LS mean
[22] = FTIH part A: plasma pharmacokinetics after single dose; conditions: human, po
[23] = FTIH study part A (single dose): safety and tolerability
[24] = FTIH part B: plasma pharmacokinetics and accumulation after repeat dose; conditions: human, po

Sequence of CYP3A4 (P08684 whole entry): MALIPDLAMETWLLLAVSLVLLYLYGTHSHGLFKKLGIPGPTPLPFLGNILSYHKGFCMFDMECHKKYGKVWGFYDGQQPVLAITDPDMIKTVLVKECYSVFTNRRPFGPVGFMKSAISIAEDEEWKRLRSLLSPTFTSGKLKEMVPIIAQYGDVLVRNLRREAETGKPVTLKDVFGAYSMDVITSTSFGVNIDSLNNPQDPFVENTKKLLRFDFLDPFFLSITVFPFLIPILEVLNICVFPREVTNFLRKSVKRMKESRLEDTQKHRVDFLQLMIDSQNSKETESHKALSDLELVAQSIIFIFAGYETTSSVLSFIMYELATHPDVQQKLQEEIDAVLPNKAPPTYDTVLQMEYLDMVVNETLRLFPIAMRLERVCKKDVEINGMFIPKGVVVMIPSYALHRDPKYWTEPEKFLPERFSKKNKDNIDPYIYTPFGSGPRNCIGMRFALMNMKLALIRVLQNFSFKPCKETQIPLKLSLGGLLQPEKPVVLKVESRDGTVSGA
Sequence of breast cancer resistance protein (Q9UNQ0 whole entry): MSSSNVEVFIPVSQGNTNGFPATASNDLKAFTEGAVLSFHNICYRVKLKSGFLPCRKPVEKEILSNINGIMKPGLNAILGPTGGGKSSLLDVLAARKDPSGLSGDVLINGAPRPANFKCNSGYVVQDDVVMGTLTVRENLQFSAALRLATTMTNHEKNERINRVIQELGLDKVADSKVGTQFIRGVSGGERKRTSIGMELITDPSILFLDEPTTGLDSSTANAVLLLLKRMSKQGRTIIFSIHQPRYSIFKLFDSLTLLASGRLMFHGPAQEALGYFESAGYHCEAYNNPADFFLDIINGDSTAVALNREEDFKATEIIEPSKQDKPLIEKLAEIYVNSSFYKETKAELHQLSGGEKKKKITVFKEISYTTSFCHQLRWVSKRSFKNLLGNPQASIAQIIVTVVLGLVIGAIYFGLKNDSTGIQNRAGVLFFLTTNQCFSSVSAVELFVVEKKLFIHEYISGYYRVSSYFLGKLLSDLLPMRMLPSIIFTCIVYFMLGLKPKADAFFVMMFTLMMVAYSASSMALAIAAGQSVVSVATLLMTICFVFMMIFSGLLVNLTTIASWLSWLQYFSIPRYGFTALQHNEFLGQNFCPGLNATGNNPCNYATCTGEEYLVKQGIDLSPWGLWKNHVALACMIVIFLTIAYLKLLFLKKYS
Sequence of P-glycoprotein (P-gp) (P08183 whole entry): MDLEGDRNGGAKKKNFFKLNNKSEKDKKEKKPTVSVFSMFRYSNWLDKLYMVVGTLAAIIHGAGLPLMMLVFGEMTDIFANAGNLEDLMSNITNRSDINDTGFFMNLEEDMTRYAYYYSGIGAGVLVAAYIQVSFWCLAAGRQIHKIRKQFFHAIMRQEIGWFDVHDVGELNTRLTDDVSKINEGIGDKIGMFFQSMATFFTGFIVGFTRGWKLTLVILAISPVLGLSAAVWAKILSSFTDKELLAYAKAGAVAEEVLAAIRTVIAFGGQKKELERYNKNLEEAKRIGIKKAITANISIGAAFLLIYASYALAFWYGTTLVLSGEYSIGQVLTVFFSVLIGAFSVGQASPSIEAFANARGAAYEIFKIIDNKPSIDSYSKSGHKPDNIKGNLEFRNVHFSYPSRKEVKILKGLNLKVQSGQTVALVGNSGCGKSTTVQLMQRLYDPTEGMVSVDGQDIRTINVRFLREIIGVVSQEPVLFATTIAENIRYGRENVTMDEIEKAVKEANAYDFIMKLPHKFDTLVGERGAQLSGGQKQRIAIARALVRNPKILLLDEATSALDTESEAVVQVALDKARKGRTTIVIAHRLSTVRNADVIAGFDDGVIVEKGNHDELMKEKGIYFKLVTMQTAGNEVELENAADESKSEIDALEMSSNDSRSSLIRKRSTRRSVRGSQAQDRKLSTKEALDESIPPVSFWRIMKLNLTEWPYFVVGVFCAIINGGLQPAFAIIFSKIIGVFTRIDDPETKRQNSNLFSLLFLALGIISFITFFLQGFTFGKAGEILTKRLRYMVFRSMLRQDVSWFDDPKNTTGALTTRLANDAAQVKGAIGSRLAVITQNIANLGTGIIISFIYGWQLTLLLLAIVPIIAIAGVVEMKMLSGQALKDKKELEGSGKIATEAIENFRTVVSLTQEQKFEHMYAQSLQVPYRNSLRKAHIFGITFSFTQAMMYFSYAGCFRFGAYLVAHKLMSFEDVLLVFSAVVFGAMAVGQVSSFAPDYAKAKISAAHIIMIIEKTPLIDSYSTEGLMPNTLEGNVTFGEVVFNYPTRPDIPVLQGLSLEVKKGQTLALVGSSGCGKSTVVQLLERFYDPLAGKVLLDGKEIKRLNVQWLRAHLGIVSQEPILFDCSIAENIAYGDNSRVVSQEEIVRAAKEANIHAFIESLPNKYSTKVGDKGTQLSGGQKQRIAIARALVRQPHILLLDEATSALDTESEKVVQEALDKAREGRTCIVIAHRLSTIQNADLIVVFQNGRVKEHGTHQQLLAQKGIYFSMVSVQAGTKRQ

NC[C@H]1OB(O)c2c(OCCO)ccc(Cl)c21 [GSK3036656, (S)-3-(aminomethyl)-4-chloro-7-(2-hydroxyethoxy)benzo[c][1,2]oxaborol-1(3H)-ol]
activity against a panel of common bacterial pathogens [1]: inactivity | activity against a panel of mammalian cell lines [2]: inactivity | maximum difference in the lungs compared to untreated mice (M. tuberculosis H37Rv [3]; daily oral doses 0.1 to 100 mg/kg for 8 days): 3.6 log CFU | EDmax (effective dose giving 90% of the total effect) (M. tuberculosis H37Rv [3]; sigmoidal fit): 1.1 mg/kg | AUC [4]: 1740 ng·h/mL | maximum reduction (drop of CFU in the lungs) (M. tuberculosis H37Rv [5]; 2 months of daily oral treatment): 2.1 log10 CFU | EDmax (M. tuberculosis H37Rv [5]; sigmoidal fit): 1.3 mg/kg | fraction unbound (in vitro [6]): 0.688 | fraction unbound (in vitro [7]): 0.76 | passive permeability [8]: moderate | P-gp substrate (P-glycoprotein (P-gp)): not a P-glycoprotein (P-gp) substrate | substrate specificity for breast cancer resistance protein [9]: lack of substrate specificity | metabolism-dependent inhibition or induction of CYP3A4 (CYP3A4): no evidence | oral bioavailability [10]: very high | oral bioavailability [11]: very high | oral bioavailability [12]: very high | stability in pooled and spiked urine [13]: degraded to GSK3635633 | EC50 ([14]; fast-growing population, SE = 13%, read-out: EC50-F in mouse): 0.0156 µg/mL (≈ 0.0606 µM) | EC50 ([14]; slow-growing population, SE = 23%, read-out: EC50-S in mouse): 0.0317 µg/mL (≈ 0.123 µM) | Emax-S (maximum killing rate against a slow-growing population) ([14]; fixed to estimated value from mouse infection models): 0.0037 (FIX)^b h^−1 | 50% inhibitory concentration (IC50) [15]: 0.0588 µg/mL | dose-proportionality slope, Cmax ([16]; both): 1.19 | steady-state AUC relative to the target exposure for efficacy in humans (1,740 ng · h/ml) ([16]; both): approximately 2.5 fold | accumulation of Cmax and AUC0–τ with repeated administration ([16]; both, 14 days): 2-3 fold | dose-proportionality slope, Cmax ([16]; both, 14 days): 1.06 | RoCmax, geometric LS mean, Ref ([16]; 5 mg): 48.40 ng/mL | RoCmax, geometric LS mean, Test ([16]; 5 mg): 97.04 ng/mL | RoCmax, geometric LS mean, Ref ([16]; 15 mg): 178.79 ng/mL | RoCmax, geometric LS mean, Test ([16]; 15 mg): 309.55 ng/mL | Tmax difference (fed-fasted) [17]: 0.75^b h | Total % dose (drug-related material) in pooled urine [18]: 50 % dose | AUC(0-inf) (clinical [19]; both, 5 mg): 1400 ng·h/mL | AUC(0-t) (clinical [19]; both, 5 mg): 771 ng·h/mL | Cmax (clinical [19]; both, 5 mg): 49.1 ng/mL | Tmax (clinical [19]; both, 5 mg): 1.1 h | AUC(0-inf) (clinical [19]; both, 15 mg): 3800 ng·h/mL | AUC(0-t) (clinical [19]; both, 15 mg): 3250 ng·h/mL | Cmax (clinical [19]; both, 15 mg): 178 ng/mL | AUC(0-inf) (clinical [19]; 25 mg): 6560 ng·h/mL | AUC(0-t) (clinical [19]; 25 mg): 5690 ng·h/mL | Cmax (clinical [19]; 25 mg): 207 ng/mL | Tmax (clinical [19]; 25 mg): 1.1 h | AUC (clinical [20]; both, 15 mg, steady-state AUC (on average)): 4460 ng·h/mL | AUC(0-t) (clinical [20]; po, 5 mg): 486 ng·h/mL | Cmax (clinical [20]; po, 5 mg): 48.4 ng/mL | Cmax at 14 days (clinical [20]; po, 5 mg): 97 ng/mL | Tmax (clinical [20]; po, 5 mg): 1.3 h | Tmax at 14 days (clinical [20]; po, 5 mg): 0.8 h | AUC (clinical [20]; po, 5 mg, AUC(Ro), geometric LS mean, Ref): 486 ng·h/mL | AUC (clinical [20]; po, 5 mg, AUC(Ro), geometric LS mean, Test): 1390 ng·h/mL | AUC (clinical [20]; po, 5 mg, Geometric mean AUC0–τ (%CVb)): 1390 ng·h/mL | AUC(0-t) (clinical [20]; po, 15 mg): 1890 ng·h/mL | Cmax (clinical [20]; po, 15 mg): 179 ng/mL | Cmax at 14 days (clinical [20]; po, 15 mg): 310 ng/mL | Tmax at 14 days (clinical [20]; po, 15 mg): 0.8 h | AUC (clinical [20]; po, 15 mg, AUC(Ro), geometric LS mean, Ref): 1890 ng·h/mL | AUC (clinical [20]; po, 15 mg, AUC(Ro), geometric LS mean, Test): 4460 ng·h/mL | AUC (clinical [20]; po, 15 mg, Geometric mean AUC0–τ (%CVb)): 4460 ng·h/mL | t1/2 ratio ([21]; fed vs fasted): 0.89 | half-life ([21]; Ref, 5 mg fasted, n = 6): 38.6 h | half-life ([21]; Test, 5 mg fed, n = 5): 34.4 h | half-life ([22]; both, 5 mg): 40.9 h | half-life ([22]; both, 15 mg): 28.4 h | half-life ([22]; 25 mg): 49.9 h | No. (%) of subjects with AE: Musculoskeletal chest pain ([23]; single dose 5 mg (n = 6)): 0 No. (%) | No. (%) of subjects with AE: Musculoskeletal chest pain ([23]; single dose 5 mg, fed (n = 5)): 0 No. (%) | No. (%) of subjects with AE: Musculoskeletal chest pain ([23]; single dose 15 mg (n = 6)): 0 No. (%) | No. (%) of subjects with AE: Musculoskeletal chest pain ([23]; single dose 25 mg (n = 6)): 1 (17) No. (%) | half-life at 14 days ([24]; 5 mg): 44 h | half-life at 14 days ([24]; 15 mg): 37 h
